Experiments:
[1] = tested on: U251-MG cells; assay: Half-maximal cell-inhibitory concentration on U251-MG cells (CCK-8); format: cell-based; details: Homo sapiens, U-251, U251-MG cells (DHX33-overexpressing), 48 hours incubation, read-out: IC50, half-maximal inhibitory concentrations of compounds on U251-MG cell
Method: U251-MG cells were purchased from the cell bank of the Chinese Academy of Sciences. Cells were cultured in MEM medium containing 10% fetal bovine serum (FBS), 2 mM L-glutamine, streptomycin and penicillin. The growth conditions were set as follows: a humidified cell incubator (37° C., 5% CO2). Cells were passaged every 3 days and were discarded after 10 passages.
U251-MG cells (a DHX33-overexpressing cancer cell strain) were seeded on a 96-well plate at 1×10^4 cells/100 μl/well. After the cells were completely attached, the compounds were added to the cell culture medium at a concentration of 5 nM, 10 nM, 25 nM, 50 nM, 100 nM, 250 nM, 500 nM, 1000 nM, 2000 nM, 5000 nM, 10 μM or 20 μM, and the resulting mixture was uniformly mixed with a multichannel pipette. After the cells were incubated with the compound for 48 hours, CCK-8 reagent (Yeasen Biotechnology (Shanghai) Co., Ltd.) was added to the medium in the 96-well plate in accordance with the standard procedure. After being incubated for 2 hours, the plate was read with a microplate reader (OD=450 nm). The experiment was repeated three times, the inhibiton curve of the compound at different concentrations was plotted, and the half-maximal inhibitory concentration (IC50) of the compound was calculated.

[2] = molecular target: T1, DHX33 protein (Mus musculus, UniProt Q80VY9); assay: Inhibition of the helicase activity of DHX33 protein in vitro; format: biochemical; details: recombinant DHX33 protein, compound 1-1000 nM, 37° C. 60 minutes; read-out: IC50, inhibitory effects of the compounds on the helicase activity of DHX33 protein
T1 construct: 0.25 μg of purified full-length DHX33 protein; made in house; host or cells: E. coli BL-21pLysS (DE3)
T1 sequence (Q80VY9 1-698): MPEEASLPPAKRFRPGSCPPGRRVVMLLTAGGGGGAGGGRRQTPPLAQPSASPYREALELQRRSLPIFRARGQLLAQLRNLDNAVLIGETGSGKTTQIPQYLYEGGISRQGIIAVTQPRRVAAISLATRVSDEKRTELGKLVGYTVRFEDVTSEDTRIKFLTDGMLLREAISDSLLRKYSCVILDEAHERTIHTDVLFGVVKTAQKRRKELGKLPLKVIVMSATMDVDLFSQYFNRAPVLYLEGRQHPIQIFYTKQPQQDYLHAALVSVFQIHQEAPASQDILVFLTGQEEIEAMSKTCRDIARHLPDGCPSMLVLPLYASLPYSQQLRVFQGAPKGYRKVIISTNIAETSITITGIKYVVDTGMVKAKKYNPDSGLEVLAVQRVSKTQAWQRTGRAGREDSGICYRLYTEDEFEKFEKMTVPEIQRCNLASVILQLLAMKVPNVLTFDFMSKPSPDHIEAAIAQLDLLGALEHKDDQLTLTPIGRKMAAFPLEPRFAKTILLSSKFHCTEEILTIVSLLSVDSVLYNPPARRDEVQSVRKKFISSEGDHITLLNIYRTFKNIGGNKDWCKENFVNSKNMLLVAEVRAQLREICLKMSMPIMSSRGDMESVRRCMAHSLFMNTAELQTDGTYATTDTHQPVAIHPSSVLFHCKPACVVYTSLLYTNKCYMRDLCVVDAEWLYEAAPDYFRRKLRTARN
Method: Biochemistry. 2019;58 (4):250-8. RNA helicase gene (mouse DHX33 gene) was cloned into a pET32M-3C vector (between BamH I/Not I restriction sites). Afterward, the plasmid was transformed into BL-21pLysS (DE3) E. coli. 0.5 mM isopropyl 1-thio-P-D-galactopyranoside (IPTG) was added, and the expression of the recombinant protein was induced at 16° C. for 16 hours. Cells were allowed to precipitate and were resuspended in a cell lysis buffer [50 mM Tris-HCl (pH7.2), 150 mM NaCl, 1% Triton X-100, and 50 mM imidazole supplemented with a protease inhibitor]. Thereafter, cells were subjected to ultrasonic treatment and centrifuged at a rotation speed of 13000 rpm for 25 minutes. The supernatant was incubated with the nickel-nitrilotriacetic acid beads equilibrated in Tris buffer, followed by sufficient washing. Thereafter, the purified protein was eluted with a solution of 300 mM imidazole in Tris buffer, and was then subjected to dialysis against an imidazole-free Tris buffer at 4° C. overnight.
The components involved in the reaction for testing the helicase activity were added to a 96-well opaque white plate. The method was outlined as follows. The 96-well plate was coated with neutravidin at a final concentration of 10 μg/mL (100 μL/well) overnight at 4° C. Afterwards, the neutravidin-coated plate was blocked with 100 μL of 0.1% (w/v) BSA (dissolved in normal PBS) at 22° C. for 2 hours. After washing, a DNA duplex (2.5 ng) that was resulted from the annealing of two single-stranded DNA oligonucleotides (the sequence of one single strand was biotin-labeled 5′-[…]-3; and the sequence of the other single strand was DIG-labeled 5′-[…]-3′) [the annealing reaction was carried out in PBS (pH 7.0) containing 1M NaCl] was added, and the resulting mixture was incubated at 22° C. for 4 hours. After the addition of 90 μL of the reaction mixture, the helicase reaction was initiated [0.25 μg of purified full-length DHX33 protein, dissolved in 25 mM 4-MOPS (pH 7.0), 5 mM ATP, 2 mM DTT, 3 mM MnCl2 and 100 μg/mL BSA]. The reaction was conducted at 37° C. for 60 minutes. After being washed, each well was incubated with a blocking solution [10% (w/v) BSA in 0.1 M maleic acid and 0.15 M NaCl (pH 7.5)] for 30 minutes, and was then incubated with 20 μL of antibody solution (anti-DIG-AP, Roche, in blocking buffer) for 30 minutes. After being washed with 100 μL of detection buffer [0.1 M Tris-HCl and 0.1 M NaCl (pH 9.5)], each well was added with 1 μL of chemiluminescent substrate (CSPD-0.25 mM), and the plate was incubated at 17° C. for 5 minutes. […] The remaining DIG-AP marker control in each well was counted for 10 minutes by a luminescence multi-well plate reader (Enspire, PerkinElmer). Higher reading indicated weaker helicase activity. […]

| IC50 [1] [µM] | IC50 [2] [µM] | Structure (SMILES) |
| --- | --- | --- |
| 0.1 to 1 | 0.02 to 0.1 | Cc1cc(C#N)c(-n2c(C)cc(C(=O)Nc3nc4ccc(F)cc4[nH]3)c2C)s1 [AB29556] |
| 0.1 to 1 | – | Cc1cc(C#N)c(-n2c(C)cc(C(=O)Nc3nc4ccc(Cl)cc4[nH]3)c2C)s1 [AB29557] |
| < 0.1 | < 0.02 | COc1cc2[nH]c(NC(=O)c3cc(C)n(-c4sc(C)cc4C#N)c3C)nc2cn1 [AB29558] |
| 1 to 5 | ≥ 0.4 | COc1cccc2nc(NC(=O)c3cc(C)n(-c4sc(C)cc4C#N)c3C)[nH]c12 [AB29559] |
| 1 to 5 | – | Cc1cc(C#N)c(-n2c(C)cc(C(=O)Nc3nc4cccnc4[nH]3)c2C)s1 [AB29554] |
| 0.1 to 1 | – | Cc1cc(C#N)c(-n2c(C)cc(C(=O)Nc3nc4ccccc4[nH]3)c2C)s1 [AB29553] |
| 1 to 5 | – | Cc1cc(C#N)c(-n2c(C)cc(C(=O)Nc3nc4ccncc4[nH]3)c2C)s1 [AB29555] |

Continued, compound first:

| Structure (SMILES) | IC50 [1] [µM] | IC50 [2] [µM] |
| --- | --- | --- |
| Cc1cc(C#N)c(-n2c(C)cc(C(=O)Nc3nc4ccc(OC(F)(F)F)cc4[nH]3)c2C)s1 [AB29572] | 1 to 5 | – |
| COc1ccc2nc(NC(=O)c3cc(C)n(Cc4cccs4)c3C)[nH]c2c1 [AB29552] | 1 to 5 | – |
| COc1cnc2nc(NC(=O)c3cc(C)n(-c4sc(C)cc4C#N)c3C)[nH]c2c1 [AB29566] | < 0.1 | – |
| Cc1oc(-n2c(C)cc(/C=C(\C#N)c3nc4ccccc4[nH]3)c2C)c(C#N)c1C [Compound as control, reference compound] | – | ≥ 0.4 |
| COc1ccc2nc(NC(=O)c3cc(C)n(-c4oc(C)nc4C#N)c3C)[nH]c2c1 [AB29522] | 0.1 to 1 | – |
| COCn1c(NC(=O)c2cc(C)n(-c3sc(C)cc3C#N)c2C)nc2cc(OC)ccc21 [AB29563] | 0.1 to 1 | – |
| COCn1c(NC(=O)c2cc(C)n(-c3sc(C)cc3C#N)c2C)nc2ccc(OC)cc21 [AB29562] | 0.1 to 1 | – |
| COc1ccc2nc(NC(=O)c3cc(C)n(-c4sc(C)cc4C#N)c3C)n(COC(=O)C(C)(C)C)c2c1 [AB29564] | 1 to 5 | – |
| COc1ccc2c(c1)nc(NC(=O)c1cc(C)n(-c3sc(C)cc3C#N)c1C)n2COC(=O)C(C)(C)C [AB29565] | 1 to 5 | – |
| COc1ccc2nc(C(=O)Nc3cc(C)n(-c4sc(C)cc4C#N)c3C)[nH]c2c1 [AB29540] | 0.1 to 1 | – |
| COc1cc2cc(NC(=O)c3cc(C)n(-c4sc(C)cc4C#N)c3C)[nH]c2cn1 [AB29573] | 0.1 to 1 | – |
| COc1ccc2nc(NC(=O)c3cc(C)n(-c4sc(C)cc4C#N)c3C)n(C)c2c1 [AB29561] | 0.1 to 1 | – |
| COc1ccc2nc(N(C)C(=O)c3cc(C)n(-c4sc(C)cc4C#N)c3C)[nH]c2c1 [AB29560] | 0.1 to 1 | – |

Reference: patent publication US20240182454A1, “Polycyclic Compound for Inhibiting RNA Helicase DHX33, and Application of Compound” (Shenzhen KeYe Life Technologies, Co., Ltd, priority 2021, published 2024)
